In ChEMBL document CHEMBL1201862, “PubChem BioAssay data set” (2004):
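Exposure lasted 48 hours, with cells grown in 96-well plates and compounds tested at five concentrations. GI50 is the concentration that inhibits growth by half.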 Active and inactive are the calls of the source. No stated cut-off is given here; in the data, active = GI50 up to about 1.1 µM and inactive = higher.

Legend:
Assay in all cases: NCI-60 cell line screen, 48 h
MCF7 = test system: MCF7
SNB-19 = test system: SNB-19
PC-3 = test system: PC-3
A549 = test system: A549
CAKI-1 = test system: CAKI-1
HCC 2998 = test system: HCC 2998
SK-MEL-28 = test system: SK-MEL-28
MDA-MB-231 = test system: MDA-MB-231
SF-539 = test system: SF-539
NCI/ADR-RES = test system: NCI/ADR-RES
BT-549 = test system: BT-549
COLO 205 = test system: COLO 205
SN12C = test system: SN12C
KM-20L2 = test system: KM-20L2
NCI-H226 = test system: NCI-H226
MDA-MB-435 = test system: MDA-MB-435
HOP-18 = test system: HOP-18
T47D = test system: T47D
RXF 393 = test system: RXF 393
UO-31 = test system: UO-31
HT-29 = test system: HT-29
HOP-92 = test system: HOP-92
SK-MEL-5 = test system: SK-MEL-5
SK-OV-3 = test system: SK-OV-3
M19-MEL = test system: M19-MEL
LOX IMVI = test system: LOX IMVI
NCI-H460 = test system: NCI-H460
IGROV-1 = test system: IGROV-1
UACC-62 = test system: UACC-62
Malme-3M = test system: Malme-3M
M14 = test system: M14
K562 = test system: K562
ACHN = test system: ACHN
DMS-114 = test system: DMS-114
MDA-N = test system: MDA-N
SK-MEL-2 = test system: SK-MEL-2
U-251 = test system: U-251
HL-60 = test system: HL-60
Hs-578T = test system: Hs-578T
NCI-H522 = test system: NCI-H522
SNB-75 = test system: SNB-75
SNB-78 = test system: SNB-78
A498 = test system: A498
NCI-H23 = test system: NCI-H23
786-0 = test system: 786-0
SF-268 = test system: SF-268
CCRF-CEM = test system: CCRF-CEM
EKVX = test system: EKVX
XF498 = test system: XF498
OVCAR-8 = test system: OVCAR-8
RPMI-8226 = test system: RPMI-8226
SW-620 = test system: SW-620
DLD-1 = test system: DLD-1
OVCAR-5 = test system: OVCAR-5
DMS-273 = test system: DMS-273
SF-295 = test system: SF-295
HCT-116 = test system: HCT-116
SR = test system: SR
HCT-15 = test system: HCT-15
HOP-62 = test system: HOP-62
TK-10 = test system: TK-10
UACC-257 = test system: UACC-257
KM12 = test system: KM12
MOLT-4 = test system: MOLT-4
DU-145 = test system: DU-145
OVCAR-3 = test system: OVCAR-3
OVCAR-4 = test system: OVCAR-4

Compound: O=C[C@@H](CO)O[C@H](C=O)n1cnc2c(=O)nc[nH]c21
- GI50 (MCF7): 91.2 µM (inactive)
- GI50 (SNB-19): 638 µM (inactive)
- GI50 (PC-3): 376 µM (inactive)
- GI50 (A549): 849 µM (inactive)
- GI50 (CAKI-1): 319 µM (inactive)
- GI50 (HCC 2998): 116 µM (inactive)
- GI50 (SK-MEL-28): 369 µM (inactive)
- GI50 (MDA-MB-231): 128 µM (inactive)
- GI50 (SF-539): 490 µM (inactive)
- GI50 (NCI/ADR-RES): 438 µM (inactive)
- GI50 (BT-549): 282 µM (inactive)
- GI50 (COLO 205): 288 µM (inactive)
- GI50 (SN12C): 266 µM (inactive)
- GI50 (KM-20L2): 426 µM (inactive)
- GI50 (NCI-H226): 583 µM (inactive)
- GI50 (MDA-MB-435): 243 µM (inactive)
- GI50 (HOP-18): 388 µM (inactive)
- GI50 (T47D): 60.5 µM (inactive)
- GI50 (RXF 393): 239 µM (inactive)
- GI50 (UO-31): 401 µM (inactive)
- GI50 (HT-29): 486 µM (inactive)
- GI50 (HOP-92): 153 µM (inactive)
- GI50 (SK-MEL-5): 378 µM (inactive)
- GI50 (SK-OV-3): 501 µM (inactive)
- GI50 (M19-MEL): 346 µM (inactive)
- GI50 (LOX IMVI): 86.9 µM (inactive)
- GI50 (NCI-H460): 603 µM (inactive)
- GI50 (IGROV-1): 188 µM (inactive)
- GI50 (UACC-62): 375 µM (inactive)
- GI50 (Malme-3M): 301 µM (inactive)
- GI50 (M14): 505 µM (inactive)
- GI50 (K562): 83.9 µM (inactive)
- GI50 (ACHN): 540 µM (inactive)
- GI50 (DMS-114): 39.2 µM (inactive)
- GI50 (MDA-N): 108 µM (inactive)
- GI50 (SK-MEL-2): 318 µM (inactive)
- GI50 (U-251): 748 µM (inactive)
- GI50 (HL-60): 65.8 µM (inactive)
- GI50 (Hs-578T): 664 µM (inactive)
- GI50 (NCI-H522): 146 µM (inactive)
- GI50 (SNB-75): 667 µM (inactive)
- GI50 (SNB-78): 562 µM (inactive)
- GI50 (A498): 673 µM (inactive)
- GI50 (NCI-H23): 243 µM (inactive)
- GI50 (786-0): 607 µM (inactive)
- GI50 (SF-268): 431 µM (inactive)
- GI50 (CCRF-CEM): 77.3 µM (inactive)
- GI50 (EKVX): 357 µM (inactive)
- GI50 (XF498): 459 µM (inactive)
- GI50 (OVCAR-8): 404 µM (inactive)
- GI50 (RPMI-8226): 131 µM (inactive)
- GI50 (SW-620): 126 µM (inactive)
- GI50 (DLD-1): 77.8 µM (inactive)
- GI50 (OVCAR-5): 634 µM (inactive)
- GI50 (DMS-273): 101 µM (inactive)
- GI50 (SF-295): 619 µM (inactive)
- GI50 (HCT-116): 177 µM (inactive)
- GI50 (SR): 181 µM (inactive)
- GI50 (HCT-15): 73.8 µM
- GI50 (HOP-62): 264 µM (inactive)
- GI50 (TK-10): 596 µM (inactive)
- GI50 (UACC-257): 378 µM (inactive)
- GI50 (KM12): 335 µM (inactive)
- GI50 (MOLT-4): 123 µM (inactive)
- GI50 (DU-145): 261 µM (inactive)
- GI50 (OVCAR-3): 290 µM (inactive)
- GI50 (OVCAR-4): 399 µM (inactive)

Compound: COc1cccc(N[C@@H]2c3cc4c(cc3C(c3cc(OC)c(O)c(OC)c3)[C@H]3C(=O)OCC32)OCO4)c1 (stereo partly specified)
- GI50 (MCF7): 0.207 µM (active)
- GI50 (SNB-19): 0.328 µM (active)
- GI50 (A549): 0.0213 µM (active)
- GI50 (CAKI-1): 0.197 µM (active)
- GI50 (HCC 2998): 1.36 µM (inactive)
- GI50 (SK-MEL-28): 2.49 µM (inactive)
- GI50 (SF-539): 0.369 µM (active)
- GI50 (NCI/ADR-RES): 0.348 µM (active)
- GI50 (COLO 205): 2.11 µM (inactive)
- GI50 (SN12C): 0.681 µM (active)
- GI50 (KM-20L2): 1.46 µM (inactive)
- GI50 (NCI-H226): 0.249 µM (active)
- GI50 (HOP-18): 1.52 µM (inactive)
- GI50 (RXF 393): 1.07 µM (active)
- GI50 (UO-31): 0.302 µM (active)
- GI50 (HT-29): 0.973 µM (active)
- GI50 (HOP-92): 0.346 µM (active)
- GI50 (SK-MEL-5): 0.8 µM (active)
- GI50 (SK-OV-3): 1.32 µM (inactive)
- GI50 (M19-MEL): 0.624 µM (active)
- GI50 (LOX IMVI): 0.558 µM (active)
- GI50 (NCI-H460): < 0.01 µM (active)
- GI50 (IGROV-1): 2.07 µM (inactive)
- GI50 (UACC-62): 0.24 µM (active)
- GI50 (Malme-3M): 1.79 µM (inactive)
- GI50 (K562): 0.531 µM (active)
- GI50 (DMS-114): 0.578 µM (active)
- GI50 (SK-MEL-2): 3.76 µM (inactive)
- GI50 (U-251): 0.411 µM (active)
- GI50 (HL-60): 0.0499 µM (active)
- GI50 (NCI-H522): 1.21 µM (inactive)
- GI50 (SNB-75): 0.52 µM (active)
- GI50 (SNB-78): 5.36 µM (inactive)
- GI50 (A498): 0.293 µM (active)
- GI50 (NCI-H23): 0.587 µM (active)
- GI50 (SF-268): 0.681 µM (active)
- GI50 (CCRF-CEM): 0.0546 µM (active)
- GI50 (EKVX): 2.56 µM (inactive)
- GI50 (XF498): 1.12 µM (inactive)
- GI50 (OVCAR-8): 1.22 µM (inactive)
- GI50 (RPMI-8226): 0.186 µM (active)
- GI50 (SW-620): 0.891 µM (active)
- GI50 (DLD-1): 1.58 µM (inactive)
- GI50 (OVCAR-5): 4.46 µM (inactive)
- GI50 (DMS-273): 0.148 µM (active)
- GI50 (SF-295): 0.186 µM (active)
- GI50 (HCT-116): 0.693 µM (active)
- GI50 (HCT-15): 0.552 µM
- GI50 (HOP-62): 0.191 µM (active)
- GI50 (UACC-257): 0.44 µM (active)
- GI50 (KM12): 1.65 µM (inactive)
- GI50 (MOLT-4): < 0.01 µM (active)
- GI50 (OVCAR-3): 8.53 µM (inactive)
- GI50 (OVCAR-4): 7.55 µM (inactive)
